According to patent US6569846B1, “Palladium-substituted bacteriochlorophyll derivatives and use thereof” (Yeda Research and Development Co. Ltd., priority 1998, dated 2003):

System: M2R mouse melanoma cells
Assay: Phototoxicity on M2R cells (Example 10, [3H]-thymidine incorporation)
Assay type: cell-based
Conditions: pigments dissolved directly in culture medium containing 10% serum
Experimental: The diluted pigments were added and the cells were incubated in the dark for four hours at 37° C. Prior to illumination, the cells were washed once and replaced with fresh culture medium. The plates were then illuminated from the bottom for 10 minutes at room temperature and placed in the culture incubator at 37° C. in the dark. […] The following control systems were used: Dark control—untreated cells kept in the dark; Light control—cells not treated with sensitizer that were illuminated; Dark toxicity—cells treated with pigment but kept in the dark.

Pd-Bacteriopheophorbide a ethyl ester [Pd-BPheid-ethyl ester, reference compound]
concentration up to which not active at all (highest concentration tested): > 1 µM
